Structures can show the parent of a compound that is named as a salt. Where two headings read alike, the source gives them in different places. One block for each molecule: values may come before it.
Tests used:
CDK2/Cyclin A = CDK2/Cyclin A (Homo sapiens, UniProt P24941); assay: Inhibition of CDK2/Cyclin A Retinoblastoma Kinase Activity; format: biochemical; conditions: for Ki: apparent Ki, CDK2/proteolyzed cyclin A, Rb fragment substrate, 25 μM ATP
Procedure, shortened: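 Radiometric filter-binding readout of phosphate transfer to an Rb substrate fragment by purified CDK2/truncated cyclin A at 10 or 19 nM. Run at pH 7.4 with 25 μM ATP, 30 °C, 60–75 min, linear rates; background without enzyme subtracted, Ki from competitive-inhibition models.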

[1] = target: human CDK4 and genetically truncated (1-264) cyclin D3 (Homo sapiens, UniProt P11802); assay: Inhibition of CDK4/Cyclin D Retinoblastoma Kinase Activity; format: biochemical; conditions: for Ki: apparent Ki, CDK4/truncated cyclin D3, Rb fragment substrate, 25 μM ATP
Procedure, shortened: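 Apparent Ki values come from competitive or competitive tight-binding inhibition fits of background-corrected 32P/33P incorporation into His-tagged Rb fragment (386-928), captured on nitrocellulose. Reaction: 5 nM insect-cell-expressed human CDK4 with cyclin D3 (1-264), 25 μM ATP, pH 7.4 HEPES, 2% DMSO, 30° C., 20 min, extended to 60 min for tight-binding inhibitors.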

HCT-116 cell line = assay: Inhibition of cell growth, tetrazolium salt (MTT) assay; format: cell-based; conditions: for IC50: Homo sapiens, HCT-116, 120 h, MTT, three to five days, read-out: HCT-116 IC50; for HCT-116 % Inhibition at 0.25 μM: 0.25 μM compound
Procedure, shortened: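 First, cells were seeded in McCoy's 5A medium and held 4 h. Next, inhibitor concentrations in 0.5% (v/v) DMSO were applied for three to five days at 37° C, 5% CO2. Finally, after 4 h with 0.2 mg/mL MTT and medium removal, solubilized formazan was measured at 540 nm.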

[2] = 0.1 μM compound, HCT-116, Table 3

Sequence of human CDK4 and genetically truncated (1-264) cyclin D3 (P11802 whole entry, the tested form may be a part): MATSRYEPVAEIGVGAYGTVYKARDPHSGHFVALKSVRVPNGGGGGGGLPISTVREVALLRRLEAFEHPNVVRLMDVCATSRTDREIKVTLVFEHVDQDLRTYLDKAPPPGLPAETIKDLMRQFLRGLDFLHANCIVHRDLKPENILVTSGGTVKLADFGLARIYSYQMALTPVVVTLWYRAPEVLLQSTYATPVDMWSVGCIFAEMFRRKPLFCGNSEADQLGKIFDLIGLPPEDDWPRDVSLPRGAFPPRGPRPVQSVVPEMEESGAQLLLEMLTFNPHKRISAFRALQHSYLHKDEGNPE
Sequence of human CDK4 and genetically truncated (1-264) cyclin D3 (P30281 1-264 partner): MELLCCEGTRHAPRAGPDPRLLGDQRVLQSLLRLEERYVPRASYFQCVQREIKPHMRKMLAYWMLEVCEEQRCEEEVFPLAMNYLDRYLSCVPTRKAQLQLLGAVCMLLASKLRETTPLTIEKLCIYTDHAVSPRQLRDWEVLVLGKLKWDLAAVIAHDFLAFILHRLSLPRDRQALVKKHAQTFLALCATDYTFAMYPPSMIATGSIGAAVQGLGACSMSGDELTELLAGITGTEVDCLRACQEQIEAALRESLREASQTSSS

Structure (SMILES): Nc1nc(NC2CCN(C(=O)[C@@H]3CCC(=O)O3)CC2)sc1C(=O)c1c(F)cccc1F [Example D5, 5S-[1{-4-[4-Amino-5-(2,6-difluoro-benzoyl)-thiazol-2-ylamethano]-piperidin-1-yl}-methanoyl]-tetrahydro-furan-2-one]
Ki (CDK2/Cyclin A): 6.4 nM
Ki [1]: 6.8 nM
IC50 (HCT-116 cell line; first HCT-116 column (c4)): > 5000 nM
IC50 (HCT-116 cell line; second HCT-116 column (c5)): > 5000 nM

Structure (SMILES): Nc1nc(NC2CCN(S(=O)(=O)c3cnc(OCCN4CCOCC4)nc3)CC2)sc1C(=O)c1c(F)cccc1F [Example H22, (4-Amino-2-{1-[2-(2-morpholin4-yl-ethoxy)-pyrimidine-5-sulfonyl]-piperidin-4-ylamino}-thiazol-5-yl)-(2,6-difluoro-phenyl)-methanone Trifluoroacetic Acid Salt]
Ki (CDK2/Cyclin A): 1.2 nM
Ki [1]: 1.1 nM
IC50 (HCT-116 cell line; first HCT-116 column (c4)): 120 nM
IC50 (HCT-116 cell line; second HCT-116 column (c5)): 300 nM

Structure (SMILES): Nc1nc(NC2CCN(S(=O)(=O)c3ccc(SCCN4CCOCC4)nc3)CC2)sc1C(=O)c1c(F)cccc1F [Example L7, 1-(4-Amino-2-{1-[6-(2-morpholin-4-yl-ethylsulfanyl)-pyridine-3-sulfonyl]-piperidin-4-ylamino}-thiazol-5-yl)-1-(2,6-difluoro-phenyl)-methanone Dihydrochloride.]
Ki (CDK2/Cyclin A): 1.5 nM
Ki [1]: 2.2 nM
IC50 (HCT-116 cell line; first HCT-116 column (c4)): 95 nM
IC50 (HCT-116 cell line; second HCT-116 column (c5)): 300 nM

Structure (SMILES): Nc1nc(NC2CCN(S(=O)(=O)c3cccs3)CC2)sc1C(=O)c1c(F)cccc1F [Example F51, {4-Amino-2-[1-(thiophene-2-sulfonyl)-piperidin4-ylamino]-thiazol-5-yl}-(2,6-difluoro-phenyl)-methanone]
Ki (CDK2/Cyclin A): 1.5 nM
Ki [1]: 5.5 nM
IC50 (HCT-116 cell line; first HCT-116 column (c4)): 300 nM
IC50 (HCT-116 cell line; second HCT-116 column (c5)): 630 nM

Structure (SMILES): Nc1nc(NC2CCN(S(=O)(=O)c3ccc(N4CCOCC4)nc3)CC2)sc1C(=O)c1c(F)cccc1F [Example F20, 1-{4-Amino-2-[1-(6-morpholin-4-yl-pyridine-3-sulfonyl)-piperidin-4-ylamino]-thiazol-5-yl}-1-(2,6-difluoro-phenyl)-methanone Hydrochloride]
Ki (CDK2/Cyclin A): 1.4 nM
Ki [1]: 1.3 nM
IC50 (HCT-116 cell line; first HCT-116 column (c4)): 170 nM
IC50 (HCT-116 cell line; second HCT-116 column (c5)): 1300 nM

Structure (SMILES): CS(=O)(=O)c1ccc(S(=O)(=O)N2CCC(Nc3nc(N)c(C(=O)c4c(F)cccc4F)s3)CC2)cc1 [Example F12, 1-{4-Amino-2-[1-(4-methanesulfonyl-benzenesulfonyl)-piperidin-4-ylamino]-thiazol-5-yl}-1-(2,6-difluoro-phenyl)-methanone]
Ki (CDK2/Cyclin A): 0.37 nM
Ki [1]: 1.3 nM
IC50 (HCT-116 cell line; first HCT-116 column (c4)): 190 nM
IC50 (HCT-116 cell line; second HCT-116 column (c5)): 500 nM

Structure (SMILES): CN1CCC[C@H](Oc2ccc(S(=O)(=O)N3CCC(Nc4nc(N)c(C(=O)c5c(F)cccc5F)s4)CC3)cn2)C1 [Example H29, (4-Amino-2-{1-[6-(1-methyl-piperidin-3S-yloxy)-pyridine-3-sulfonyl]-piperidin-4-ylamino}-thiazol-5-yl)-(2,6-difluoro-phenyl)-methanone Hydrochloride]
Ki (CDK2/Cyclin A): 0.52 nM
Ki [1]: 1.3 nM
IC50 (HCT-116 cell line; first HCT-116 column (c4)): 36 nM
IC50 (HCT-116 cell line; second HCT-116 column (c5)): 300 nM

Continued, in another order:

CDK2 % Inhibition at 0.03 μM (CDK2/Cyclin A; 0.03 μM compound, Table 3): 63%
CDK4 % Inhibition at 0.03 μM ([1]; 0.03 μM compound, Table 3): 73%
Structure (SMILES): Nc1nc(NC2CCN(S(=O)(=O)c3ccc([N+](=O)[O-])cc3)CC2)sc1C(=O)c1c(F)cccc1F [Example P19]
HCT-116 % Inhibition at 0.1 μM (HCT-116 cell line; [2]): 19%
HCT-116 % Inhibition at 0.25 μM (HCT-116 cell line; HCT-116, Table 3): 30%

CDK2 % Inhibition at 0.03 μM (CDK2/Cyclin A; 0.03 μM compound, Table 3): 24%
CDK4 % Inhibition at 0.03 μM ([1]; 0.03 μM compound, Table 3): 42%
Structure (SMILES): Nc1nc(NC2CCN(S(=O)(=O)c3cccc(Cl)c3Cl)CC2)sc1C(=O)c1c(F)cccc1F [Example P39]
HCT-116 % Inhibition at 0.1 μM (HCT-116 cell line; [2]): 0%
HCT-116 % Inhibition at 0.25 μM (HCT-116 cell line; HCT-116, Table 3): 25%

CDK2 % Inhibition At 0.03 μM (CDK2/Cyclin A; 0.03 μM compound, Table 2): 36%
CDK4 % Inhibition at 0.03 μM ([1]; 0.03 μM compound, Table 2): 18%
Structure (SMILES): Nc1nc(NC2CCN(C(=O)NC(=O)Oc3ccccc3)CC2)sc1C(=O)c1c(F)cccc1F [Example O62]
HCT-116 % Inhibition at 0.25 μM (HCT-116 cell line; HCT-116, Table 2): 41%

CDK2 % Inhibition at 0.03 μM (CDK2/Cyclin A; at 0.03 μM): 67%
CDK4 % Inhibition at 0.03 μM ([1]; at 0.03 μM): 70%
Structure (SMILES): Nc1nc(NC2CCN(C(=O)c3cccc(O)c3)CC2)sc1C(=O)c1c(F)cccc1F [Example R138]
HCT-116 % Inhibition at 0.1 μM (HCT-116 cell line; HCT-116 cells, at 0.1 μM): 0%
HCT-116 5 Inhibition at 0.25 μM (HCT-116 cell line; HCT-116 cells, at 0.25 μM): 40

CDK2 % Inhibition at 0.03 μM (CDK2/Cyclin A; 0.03 μM compound, Table 3): 36%
CDK4 % Inhibition at 0.03 μM ([1]; 0.03 μM compound, Table 3): 54%
Structure (SMILES): CCCCOc1ccc(S(=O)(=O)N2CCC(Nc3nc(N)c(C(=O)c4c(F)cccc4F)s3)CC2)cc1 [Example P49]
HCT-116 % Inhibition at 0.1 μM (HCT-116 cell line; [2]): 10%
HCT-116 % Inhibition at 0.25 μM (HCT-116 cell line; HCT-116, Table 3): 32%

CDK2 % Inhibition at 0.03 μM (CDK2/Cyclin A; 0.03 μM compound, Table 3): 73%
CDK4 % Inhibition at 0.03 μM ([1]; 0.03 μM compound, Table 3): 74%
Structure (SMILES): COc1ccc(S(=O)(=O)N2CCC(Nc3nc(N)c(C(=O)c4c(F)cccc4F)s3)CC2)cc1OC [Example P38]
HCT-116 % Inhibition at 0.1 μM (HCT-116 cell line; [2]): 15%
HCT-116 % Inhibition at 0.25 μM (HCT-116 cell line; HCT-116, Table 3): 35%
